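96-well plates; 48 h exposure; 5 concentrations. Endpoints by linear interpolation between flanking doses. Not reached: highest tested concentration assigned. At the GI50, growth is halved. TGI denotes the concentration required for complete inhibition of growth.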
Experiments:
Test in all cases: NCI tumour cell line growth inhibition, 48 h
SF-295 CNS = test system: SF-295 CNS
HOP-62 NSCLC = test system: HOP-62 NSCLC
HCT-15 colon = test system: HCT-15 colon
OVCAR-8 ovarian = test system: OVCAR-8 ovarian
COLO 205 colon = test system: COLO 205 colon
HCT-116 colon = test system: HCT-116 colon
OVCAR-3 ovarian = test system: OVCAR-3 ovarian
MDA-MB-435 = test system: MDA-MB-435
SK-MEL-28 melanoma = test system: SK-MEL-28 melanoma
SK-OV-3 ovarian = test system: SK-OV-3 ovarian
SNB-19 CNS = test system: SNB-19 CNS
OVCAR-4 ovarian = test system: OVCAR-4 ovarian
RXF 393 renal = test system: RXF 393 renal
K-562 leukemia = test system: K-562 leukemia
786-0 renal = test system: 786-0 renal
SNB-75 CNS = test system: SNB-75 CNS
HCC-2998 colon = test system: HCC-2998 colon
U251 CNS = test system: U251 CNS
UACC-62 melanoma = test system: UACC-62 melanoma
NCI-H522 lung = test system: NCI-H522 lung
OVCAR-5 ovarian = test system: OVCAR-5 ovarian
EKVX NSCLC = test system: EKVX NSCLC
SR leukemia = test system: SR leukemia
NCI/ADR-RES ovarian = test system: NCI/ADR-RES ovarian
SK-MEL-5 melanoma = test system: SK-MEL-5 melanoma
NCI-H460 lung = test system: NCI-H460 lung
UO-31 renal = test system: UO-31 renal
CAKI-1 renal = test system: CAKI-1 renal
MOLT-4 leukemia = test system: MOLT-4 leukemia
SK-MEL-2 melanoma = test system: SK-MEL-2 melanoma
HT29 colon = test system: HT29 colon
PC-3 prostate = test system: PC-3 prostate
NCI-H23 lung = test system: NCI-H23 lung
UACC-257 melanoma = test system: UACC-257 melanoma
IGROV1 ovarian = test system: IGROV1 ovarian
T-47D breast = test system: T-47D breast
A549 NSCLC = test system: A549 NSCLC
MALME-3M melanoma = test system: MALME-3M melanoma
RPMI-8226 leukemia = test system: RPMI-8226 leukemia
MDA-MB-231 breast = test system: MDA-MB-231 breast
MCF7 breast = test system: MCF7 breast
HS 578T breast = test system: HS 578T breast
A498 renal = test system: A498 renal
HL-60(TB) leukemia = test system: HL-60(TB) leukemia
CCRF-CEM leukemia = test system: CCRF-CEM leukemia
ACHN renal = test system: ACHN renal
SN12C renal = test system: SN12C renal
KM12 colon = test system: KM12 colon
DU-145 prostate = test system: DU-145 prostate
SW-620 colon = test system: SW-620 colon
LOX IMVI melanoma = test system: LOX IMVI melanoma
TK-10 renal = test system: TK-10 renal
SF-268 CNS = test system: SF-268 CNS
BT-549 breast = test system: BT-549 breast
M14 melanoma = test system: M14 melanoma
NCI-H226 lung = test system: NCI-H226 lung
HOP-92 NSCLC = test system: HOP-92 NSCLC

Structure (SMILES): CC(C)(C#N)c1cc(C(=O)Nc2cc(Nc3ncccc3-c3ncnc4nc[nH]c34)ccc2F)cc(C(F)(F)F)c1
- TGI (SF-295 CNS): > 3730 nM
- GI50 (HOP-62 NSCLC): 463 nM
- TGI (HOP-62 NSCLC): > 10000 nM
- TGI (HCT-15 colon): > 2220 nM
- TGI (OVCAR-8 ovarian): > 10000 nM
- GI50 (COLO 205 colon): 131 nM
- GI50 (HCT-116 colon): 242 nM
- TGI (HCT-116 colon): > 2350 nM
- TGI (OVCAR-3 ovarian): > 4100 nM
- GI50 (MDA-MB-435): 217 nM
- TGI (MDA-MB-435): > 3220 nM
- GI50 (SK-MEL-28 melanoma): 107 nM
- GI50 (SK-OV-3 ovarian): > 2380 nM
- TGI (SK-OV-3 ovarian): > 10000 nM
- GI50 (SNB-19 CNS): > 2150 nM
- TGI (SNB-19 CNS): > 10000 nM
- GI50 (OVCAR-4 ovarian): 1300 nM
- TGI (OVCAR-4 ovarian): > 2930 nM
- TGI (RXF 393 renal): > 2890 nM
- GI50 (K-562 leukemia): 345 nM
- TGI (K-562 leukemia): > 10000 nM
- TGI (786-0 renal): > 6730 nM
- TGI (SNB-75 CNS): > 10000 nM
- GI50 (HCC-2998 colon): 372 nM
- TGI (U251 CNS): > 10000 nM
- GI50 (UACC-62 melanoma): 87.1 nM
- TGI (UACC-62 melanoma): 788 nM
- TGI (NCI-H522 lung): > 6560 nM
- GI50 (OVCAR-5 ovarian): 224 nM
- TGI (OVCAR-5 ovarian): > 2860 nM
- TGI (EKVX NSCLC): > 6560 nM
- TGI (SR leukemia): > 10000 nM
- GI50 (NCI/ADR-RES ovarian): 1620 nM
- TGI (NCI/ADR-RES ovarian): > 10000 nM
- GI50 (SK-MEL-5 melanoma): 589 nM
- TGI (SK-MEL-5 melanoma): > 1980 nM
- GI50 (NCI-H460 lung): 1180 nM
- TGI (NCI-H460 lung): > 3270 nM
- GI50 (UO-31 renal): 189 nM
- GI50 (CAKI-1 renal): 1140 nM
- TGI (CAKI-1 renal): > 3550 nM
- TGI (MOLT-4 leukemia): > 6200 nM
- GI50 (SK-MEL-2 melanoma): 315 nM
- TGI (SK-MEL-2 melanoma): > 2080 nM
- GI50 (HT29 colon): 132 nM
- TGI (PC-3 prostate): > 4270 nM
- GI50 (NCI-H23 lung): 514 nM
- TGI (NCI-H23 lung): > 4140 nM
- GI50 (UACC-257 melanoma): 112 nM
- TGI (UACC-257 melanoma): > 3210 nM
- GI50 (IGROV1 ovarian): 521 nM
- TGI (IGROV1 ovarian): > 2590 nM
- TGI (T-47D breast): > 3230 nM
- TGI (A549 NSCLC): > 10000 nM
- GI50 (MALME-3M melanoma): 64.8 nM
- TGI (MALME-3M melanoma): 234 nM
- GI50 (RPMI-8226 leukemia): 4840 nM
- TGI (RPMI-8226 leukemia): > 10000 nM
- GI50 (MDA-MB-231 breast): 270 nM
- TGI (MCF7 breast): > 4600 nM
- GI50 (HS 578T breast): 919 nM
- TGI (HS 578T breast): > 2330 nM
- GI50 (A498 renal): 126 nM
- TGI (A498 renal): 844 nM
- GI50 (HL-60(TB) leukemia): 526 nM
- TGI (HL-60(TB) leukemia): > 10000 nM
- TGI (CCRF-CEM leukemia): > 10000 nM
- GI50 (ACHN renal): 1200 nM
- TGI (ACHN renal): > 3410 nM
- GI50 (SN12C renal): 1420 nM
- TGI (SN12C renal): > 10000 nM
- GI50 (KM12 colon): 1180 nM
- TGI (KM12 colon): > 2090 nM
- GI50 (DU-145 prostate): > 2010 nM
- TGI (DU-145 prostate): > 10000 nM
- GI50 (SW-620 colon): 580 nM
- TGI (SW-620 colon): > 10000 nM
- GI50 (LOX IMVI melanoma): 380 nM
- TGI (LOX IMVI melanoma): 2410 nM
- TGI (TK-10 renal): > 4170 nM
- TGI (SF-268 CNS): > 10000 nM
- TGI (BT-549 breast): > 2300 nM
- GI50 (M14 melanoma): 101 nM
- TGI (M14 melanoma): 862 nM
- GI50 (NCI-H226 lung): 289 nM
- TGI (NCI-H226 lung): > 6400 nM
- GI50 (HOP-92 NSCLC): 255 nM
- TGI (HOP-92 NSCLC): 1780 nM
